Laboratory results as given in patent US20240309015A1, “Methods for the Treatment of Fibrotic Disease” (SHY Therapeutics, LLC, priority 2021, published 2024).

Assays:
KRas G12D mutant = experiment: Ras GTP Binding Domain Inhibition Assay, KRas G12D mutant; details: at 20 μM; for KRas G12D mutant + SOS: % inh.: with SOS; for KRas G12D mutant: % inh.: without SOS
Description: (§1) A Ras Superfamily Activity Assay (as disclosed in International Application No. PCT/US2018/038613, filed Jun. 20, 2018, which is incorporated by reference in its entirety) was used as a specific assay to evaluate compounds against the following for the following Ras Superfamily proteins: KRas wild type, KRas Q61H mutant, KRas G12C mutant, KRas G12D mutant, Rac-1, and Rho-A.
(§2) Buffer-I: • 25 mM Tris-HCl, pH 7.4 • 27 mM KCl • 137 mM NaCl • 1 mM MgCl2 • 1 mM DTT
(§3) Buffer-IL: • 50 mM Tris-HCl, pH 7.0 • 1 mM MgCl2 • 1 mM DTT
(§4) The small GTPases proteins: KRas wild type. KRas Q61H mutant, KRas G12C mutant, KRas G12D mutants, Rac-1, and Rho-A were expressed as His-tagged proteins. In addition, the Guanosine nucleotide Exchange Factor (GEF) Sos protein (residues 556-1049) was expressed as a His-tagged protein. In cells, the guanine nucleotide exchange factor Sos protein promotes activation of Ras proteins by stimulating an exchange of GDP for GTP. The inclusion of Sos to the Ras GTP binding domain inhibition assay may be considered as an alternative representation of physiological cellular conditions for evaluating the inhibitory activity of some of the tested small molecules.
(§5) For the assay, all purified small GTPases proteins were diluted in Buffer-I or Buffer-II to a final concentration of 10-30 μg/mL. 200 μL of each diluted protein was added to a nickel-coated 96-well plate and incubated overnight at 4° C. Then the protein solution was discarded and 200 μL of Buffer-I or Buffer-II was added to each well in the presence of 1% DMSO. Compounds to be tested were added to the protein-coated wells at final concentration of 20 μM, and incubated for 3 hours at room temperature with and without 10-30 μg/mL of Sos added to the final hour of the incubation. When performing IC50 measurements a serial dilution of all tested concentrations was added. Then Cy3-GTP or Cy5-GTP was added to each well to a final concentration of 100 nM. The labeled GTP was incubated for 45 minutes at room temperature. Following GTP incubation, wells were washed 3× in Buffer-I or Buffer-II and 200 μL of Buffer-I or Buffer-II was added to each well. Following washes, the amount of bound labeled-GTP was measured using a SpectraMax M3 (Molecular Devices).

KRas wild type = experiment: Ras GTP Binding Domain Inhibition Assay, KRas wild type; details: at 20 μM; for KRas wild type + SOS: % inh.: with SOS; for KRas wild type: % inh.: without SOS
Description: as §1, §2, §3, §4, §5

KRas G12C mutant = experiment: Ras GTP Binding Domain Inhibition Assay, KRas G12C mutant; details: at 20 μM; for KRas G12C mutant + SOS: % inh.: with SOS; for KRas G12C mutant: % inh.: without SOS
Description: as §1, §2, §3, §4, §5

Rho-A = experiment: Ras GTP Binding Domain Inhibition Assay, Rho-A; details: at 20 μM; without SOS
Description: as §1, §2, §3, §4, §5

IL-6 = experiment: Mouse IL6 Quantification Assay (LPS-stimulated RAW 264.7); assay type: cell-based; set-up: dose or concentration left out as unconfirmed; details: RAW264.7, ELISA, read-out: IL-6: % inh.
Smad2/3 phosphorylation = experiment: Phospho-Smad2/3 Inhibition Assay in PANC-1; assay type: cell-based; details: Homo sapiens; 10 μM compound, 3 h; TGF-b1 stimulated PANC-1; western blot; read-out: % inh of Smad2/3 phosphorylation in PANC-1
Description: Cell lines: Human tumor-derived pancreatic cancer cell line Panc-1 and mouse muscle myoblast C2C12 were purchased from American Type Culture Collection and grown in complete DMEM-High Glucose, supplemented with penicillin (100 U/mL), streptomycin (100 μg/mL), and 10% heat-inactivated FBS at 37° C. in a humidified incubator with 5% CO2.
Method: Cells were plated at 350000 cells/well density in a 12-well plate, allowed 3 hours to adhere to the plate, then starved in the appropriate medium in the presence of 0.5% FBS overnight. The small molecules to be tested were added to the cells in the final concentration of 10 μM in the presence of 0.3% DMSO for 3 hours incubation at 37° C. For IC50 value determination, serial dilutions of compounds were added to cells under the same conditions. Next, Panc-1 cells were stimulated with 10 ng/ml TGF-b1 for 1 hour, and C2C12 cells were stimulated with 10 ng/ml TGF-b1 for 20 minutes (recombinant human TGF-b1, R&D Systems). After stimulation cells were lysed with lysis buffer containing 1% Triton X-100, EDTA, and Halt™ Protease & Phosphatase Inhibitor Cocktail (Thermo Scientific). Protein concentration was assessed by BCA protein assay (Thermo Scientific). Phosphorylation level of Smad2/Smad3 was determined by western blot.
Western blot protocol: Equal amounts of protein (15-50 μg) were separated by SDS-PAGE and transferred to nitrocellulose membranes (Invitrogen by Thermo Fisher Scientific). The membrane was stained with Ponceau S Stain (Boston BioProducts) to verify uniform protein loading. Membranes were blocked with 10% milk and phosphorylation levels of Smad2/Smad3 were assessed by incubating overnight at 4° C. with the following antibodies: Phospho-Smad2 (Ser465/467) and Phosph-Smad3 (Ser423/425), both from Cell Signaling Technology. Then the membranes were incubated with HRP-conjugated secondary antibody (Jackson Immunoresearch, West Grove, PA). Bands were incubated in Amersham ECL Prime Western Blotting Detection Reagent (GE Healthcare) and visualized using the ChemiDoc MP imaging system (Bio-Rad).

TNFα = experiment: Mouse TNF Alpha Quantification Assay (LPS-stimulated RAW 264.7); assay type: cell-based; set-up: dose or concentration left out as unconfirmed; details: RAW264.7, ELISA, read-out: TNFα: % inh.

Structure (SMILES) | KRas G12D mutant + SOS: % inh. (KRas G12D mutant; Table 7) | KRas G12D mutant + SOS: % inh. (KRas G12D mutant; Table 8) | KRas G12D mutant: % inh. (KRas G12D mutant; Table 7) | KRas G12D mutant: % inh. (KRas G12D mutant; Table 8) | KRas wild type + SOS: % inh. (KRas wild type) | KRas wild type: % inh. (KRas wild type) | KRas G12C mutant + SOS: % inh. (KRas G12C mutant) | KRas G12C mutant: % inh. (KRas G12C mutant) | Rho-A: % inh. (Rho-A) | inhibition (IL-6) [%] | inhibition at 10 µM (Smad2/3 phosphorylation) [%] | inhibition (TNFα) [%]
Cc1c(-c2ccn(C(C)C)n2)sc2nc(-c3nccn3C)nc(NCC3COCCN3C)c12 (racemic) [Compound 24, rac-6-(1-Isopropyl-1H-pyrazol-3-yl)-5-methyl-2-(1-methyl-1H-imidazol-2-yl)-N-((4-methylmorpholin-3-yl)methyl)thieno[2,3-d]pyrimidin-4-amine] | D (D = 76-100% inhibition) | D (D = 76-100% inhibition) | C (C = 46-75% inhibition) | C (C = 46-75% inhibition) | D (D = 76-100% inhibition) | B (B = 26-45% inhibition) | D (D = 76-100% inhibition) | C (C = 46-75% inhibition) | C (C = 46-75% inhibition) | 76 to 100 | 0 | 1 to 25
COc1cc(-c2sc3nc(-c4nccn4C)nc(N[C@@H]4CC[C@H](OC)C4)c3c2-c2ccccc2)ccn1 (racemic) [Compound 44, rac-N-((1R,3S)-3-Methoxycyclopentyl)-6-(2-methoxypyridin-4-yl)-2-(1-methyl-1H-imidazol-2-yl)-5-phenylthieno[2,3-d]pyrimidin-4-amine] | C (C = 46-75% inhibition) | C (C = 46-75% inhibition) | D (D = 76-100% inhibition) | D (D = 76-100% inhibition) | D (D = 76-100% inhibition) | C (C = 46-75% inhibition) | D (D = 76-100% inhibition) | B (B = 26-45% inhibition) | 0 (0 = 0% inhibition) | – | 76 to 100 | –
COc1nccc(-c2sc3nc(-c4nccn4C)nc(N[C@H]4C[C@H](OC)C4)c3c2-c2ccccc2)c1F [Compound 45, 6-(3-Fluoro-2-methoxypyridin-4-yl)-N-((1r,3r)-3-methoxycyclobutyl)-2-(1-methyl-1H-imidazol-2-yl)-5-phenylthieno[2,3-d]pyrimidin-4-amine] | C (C = 46-75% inhibition) | C (C = 46-75% inhibition) | C (C = 46-75% inhibition) | C (C = 46-75% inhibition) | D (D = 76-100% inhibition) | C (C = 46-75% inhibition) | D (D = 76-100% inhibition) | B (B = 26-45% inhibition) | C (C = 46-75% inhibition) | – | 76 to 100 | –
COC1CCCN(c2nc(-c3nccn3C)nc3sc(-c4ccn(C(C)C)n4)c(C)c23)C1 (racemic) [Compound 14, rac-6-(1-Isopropyl-1H-pyrazol-3-yl)-4-(3-methoxypiperidin-1-yl)-5-methyl-2-(1-methyl-1H-imidazol-2-yl)thieno[2,3-d]pyrimidine] | – | – | – | – | D (D = 76-100% inhibition) | 0 (0 = 0% inhibition) | D (D = 76-100% inhibition) | B (B = 26-45% inhibition) | B (B = 26-45% inhibition) | 76 to 100 | 46 to 75 | 26 to 45
COc1cc(-c2sc3nc(-c4nccn4C)nc(N[C@H]4C[C@H](OC)C4)c3c2-c2ccccc2)ccn1 [Compound 46, N-((1r,3r)-3-Methoxycyclobutyl)-6-(2-methoxypyridin-4-yl)-2-(1-methyl-1H-imidazol-2-yl)-5-phenylthieno[2,3-d]pyrimidin-4-amine] | C (C = 46-75% inhibition) | C (C = 46-75% inhibition) | C (C = 46-75% inhibition) | C (C = 46-75% inhibition) | D (D = 76-100% inhibition) | C (C = 46-75% inhibition) | D (D = 76-100% inhibition) | B (B = 26-45% inhibition) | C (C = 46-75% inhibition) | – | 76 to 100 | –
COc1cc(-c2sc3nc(-c4nccn4C)nc(N[C@@H]4CC[C@@H](OC)C4)c3c2-c2ccccc2)ccn1 (racemic) [Compound 47, N-((1R,3R)-3-Methoxycyclopentyl)-6-(2-methoxypyridin-4-yl)-2-(1-methyl-1H-imidazol-2-yl)-5-phenylthieno[2,3-d]pyrimidin-4-amine] | D (D = 76-100% inhibition) | D (D = 76-100% inhibition) | C (C = 46-75% inhibition) | C (C = 46-75% inhibition) | D (D = 76-100% inhibition) | D (D = 76-100% inhibition) | D (D = 76-100% inhibition) | C (C = 46-75% inhibition) | C (C = 46-75% inhibition) | – | 76 to 100 | –
COCCOCCNc1nc(-c2nccn2C)nc2sc(-c3ccn(C(C)C)n3)c(C)c12 [Compound 21, 6-(1-Isopropyl-1H-pyrazol-3-yl)-N-(2-(2-methoxyethoxy)ethyl)-5-methyl-2-(1-methyl-1H-imidazol-2-yl)thieno[2,3-d]pyrimidin-4-amine] | D (D = 76-100% inhibition) | D (D = 76-100% inhibition) | D (D = 76-100% inhibition) | D (D = 76-100% inhibition) | D (D = 76-100% inhibition) | D (D = 76-100% inhibition) | D (D = 76-100% inhibition) | C (C = 46-75% inhibition) | D (D = 76-100% inhibition) | 46 to 75 | – | 1 to 25
